Assay results reported in patent publication US20240118210A1, “FFN FLUORESCENCE RELEASE ASSAY (FFRA) AND METHODS OF USING SAME” (Duke University, priority 2021, published 2024).

Legend:
[1] = system: healthy donor platelet rich plasma; test: Release of FFN246 vs FFN102 from platelets exposed to calcium ionophore (Example 5, FIG. 4); type: cell-based; settings: 100 μM FFN; for MFI of supernatant, FFN-loaded platelets incubated with ionophore: calcium ionophore
Method: Drawing of donor blood and preparation of donor platelets. 10-20 cc of blood were drawn off into Acid-Citrate Dextrose. 20 mL of whole blood generated 8-10 mL of platelet rich plasma (PRP). The whole blood was spun down at 180 g for 20 minutes without using the brake. Donor PRP was separated and the needed PRP was calculated for each of the FFN246 and buffer conditions. 25 μM of FFN246 was added to the PRP condition labeled “FFN246”. 2.5 μL/mL of PGE1 was added to each PRP condition simultaneously. The mixture was incubated at 37° C. for 30 minutes in a H2O bath. For example, for 2.5 mL PRP, 6.25 μL PGE1 and 6.25 μL FFN246 were added. FFN246 was not added to the buffer PRP condition.
The mixture was centrifuged at 700 g for 10 minutes with a brake at 22° C. to 26° C. The supernatant was discarded and the platelets were gently resuspended in PGE1/Apyrase buffer 1 mL per mL PRP for 15 minutes at room temperature. For example, 2.5 mL PRP was resuspended in 2.5 mL buffer. This was centrifuged at 700 g for 10 minutes at room temperature with a brake. The supernatant was discarded and FFN246 or platelets were resuspended into 2 mL/PRP of Ca/Mg buffer after using a pipette to completely remove PGE1/apyrase containing buffer above pellet. For example, 2.5 mL of platelets was resuspended with 5 mL of HT Ca/Mg.
When various conditions were tested, such as NP40, buffer alone, buffer+heparin, SFLLRN, and additional conditions dictated by an experiment, the following aliquots were added: agonist, plasma, or antibody; buffer added to agonist to make 50 μL total; and 150 μL of FFN246 buffer labeled platelets. The conditions were allowed to develop for 1 hour at 37° C. on an agitator. The conditions were then centrifuged at 700 g for 10 mins at room temperature with a brake. 75 μL of the supernatant was added per well in triplicate. Fluorometer analysis was ran within 1 hour at appropriate excitation/emission spectra (FFN246 ex/em (nm): 392/427).
The amount of FFN246 released from platelets was compared to that of FFN102, a dopaminergic fluorophore. Healthy donor platelet rich plasma was incubated with 100 μM of FFN246, FFN102, or buffer alone. Incubation and washing occurred per the protocol described in Example 1. Resuspended platelets were added either to calcium ionophore or buffer conditions for both FFN246 and FFN102. Supernatant was collected following centrifugation and analyzed using fluorometry.

[2] = system: healthy donor washed platelets; test: FFN246 release on platelet activation with HIT-like monoclonal antibody KKO (Example 4, FIG. 3); type: cell-based; settings: for MFI of platelet releasate, FFN246+agonist or antibody, no heparin: platelets loaded with 50 μM FFN246, 45 min, collagen 63 nM, SFLLRN 100 μM, KKO alone 25 μg/mL
Method: To examine the effect of various platelet agonists on FFN246 release, healthy donor washed platelets were incubated with 50 μM FFN246 for 30 minutes, followed by addition of 1 mM imipramine for 10 minutes to block further reuptake. Platelets were then incubated with (1) A23187 10 μM; (2) collagen 63 nM; (3) SFLLRN 100 μM; (4) buffer; (5) KKO alone 25 μg/mL; (6) 0.5 U/mL heparin, 25 μg/ml KKO; (7) 10 U/mL heparin, 25 μg/mL KKO; (8) 0.5 U/mL heparin, 25 μg/mL TRA; and (9) A23187 10 μM (no FFN246). Incubation occurred for 45 minutes and platelets were centrifuged for 10 minutes at 576×g. Fluorescence in the platelet releasate was measured in a BMG Labtech Fluostar optima fluorometer at an appropriate emission/excitation spectra. Gain was set using the FFN246 releasate for each concentration at 50% of maximum signal.

healthy donor platelets [3] = test: FFN246 release with platelet activation by several platelet agonists (Example 3, FIG. 2); type: cell-based; settings: for MFI of platelet releasate, FFN246+agonist: platelets loaded with 50 μM FFN246, 45 min, A23187 10 μM, ADP 25 μM, ristocetin 73 μM, collagen 63 nM, IIa 278 nM, PAR4 peptide 200 μM, SFLLRN 100 μM
Method: To determine if FFN246 loaded platelets release FFN246 with other platelet agonists and receptor mechanisms, FFN246 release was examined by incubating platelets with several platelet secretogogues, including collagen, IIa, PAR4, SFLLRN. […] Collagen stimulates the GP VI receptor; ADP stimulates the P2Y1 and P2Y12 receptors; IIa activates PAR1 and PAR4 receptors; SFLLRN binds to the PAR1 receptor; PAR4 agonist binds the PAR4 receptor.
To examine the effect of various platelet agonists on FFN246 release, healthy donor platelets were washed and incubated with and without FFN246 (50 μM) for 30 minutes, followed by the addition of 1 mM imipramine for 10 minutes to block further reuptake. Platelets were then incubated with the various conditions: (1) A23187 10 μM; (2) buffer alone; (3) ADP 25 μM; (4) ristocetin 73 μM; (5) collagen 63 nM; (6) IIa 278 nM; (7) PAR4 peptide 200 μM; (8) SFLLRN 100 μM: and (9) buffer only platelets+A23187 (10 μM) for 45 minutes. Following incubation with agonists, platelets were centrifuged for 10 minutes at 576×g. Fluorescence in the platelet releasate (i.e. supernatant) was measured in a BMG Labtech Fluostar Optima fluorometer at an appropriate emission/excitation spectra. Gain was set using the FFN246 releasate for each concentration at 50% of maximum signal.

healthy donor platelets [4] = test: FFN246 release from platelets activated with A23187 at varying FFN246 concentrations (Example 2, FIG. 1); type: cell-based; settings: for MFI of platelet releasate, FFN246+A23187: A23187 45 min
Excerpt: Calcium (Ca) ionophores mobilize calcium ions from intracellular storage sites or transport it through the plasma membrane to increase the concentration of cytoplasmic calcium ions (Ca^2+) and thereby activate platelets. The Ca ionophore A23187 works by triggering release of Ca^2+ from the dense tubular system of platelets and is a potent activator of platelets. A23187 was used to test if FFN246 loaded platelets would release FFN246 into the supernatant upon activation.
Platelets were then washed twice in buffer containing prostaglandin E1 (PGE1) and apyrase to minimize platelet activation. The washed platelets were resuspended in Mg^2+/Ca^2+ buffer without inhibitors. Washed platelets were then incubated with A23187 for 45 minutes, after which platelets were centrifuged for 10 minutes at 576×g. Fluorescence in the platelet releasate/supernatant was measured in a BMG Labtech Fluostar Optima fluorometer at an appropriate emission/excitation spectra. Gain was set using the FFN246 releasate for each concentration at 50% of maximum signal.

[5] = target: norepinephrine transporters (NET) (Homo sapiens, UniProt P23975); settings: relative to SERT uptake; cited from earlier work
Chain of norepinephrine transporters (NET) (P23975 whole entry): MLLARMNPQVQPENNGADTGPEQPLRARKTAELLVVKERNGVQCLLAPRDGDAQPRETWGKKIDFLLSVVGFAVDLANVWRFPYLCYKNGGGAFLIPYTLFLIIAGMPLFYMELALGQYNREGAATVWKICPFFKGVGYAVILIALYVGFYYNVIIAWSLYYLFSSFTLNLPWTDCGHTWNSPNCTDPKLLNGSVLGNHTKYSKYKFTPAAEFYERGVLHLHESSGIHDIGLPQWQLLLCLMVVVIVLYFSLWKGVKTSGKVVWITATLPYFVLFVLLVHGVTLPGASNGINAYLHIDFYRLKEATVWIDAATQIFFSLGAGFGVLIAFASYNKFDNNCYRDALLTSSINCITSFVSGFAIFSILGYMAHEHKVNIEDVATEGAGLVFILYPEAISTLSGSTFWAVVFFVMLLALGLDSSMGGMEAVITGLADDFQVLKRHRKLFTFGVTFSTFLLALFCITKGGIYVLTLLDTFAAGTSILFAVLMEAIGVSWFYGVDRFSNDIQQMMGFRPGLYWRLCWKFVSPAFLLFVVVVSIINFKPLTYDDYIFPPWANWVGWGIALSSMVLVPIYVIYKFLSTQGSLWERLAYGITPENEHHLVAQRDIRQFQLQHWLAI

[6] = target: dopamine transporters (DAT) (Homo sapiens, UniProt Q01959); settings: relative to SERT uptake; cited from earlier work
Chain of dopamine transporters (DAT) (Q01959 whole entry, species assumed): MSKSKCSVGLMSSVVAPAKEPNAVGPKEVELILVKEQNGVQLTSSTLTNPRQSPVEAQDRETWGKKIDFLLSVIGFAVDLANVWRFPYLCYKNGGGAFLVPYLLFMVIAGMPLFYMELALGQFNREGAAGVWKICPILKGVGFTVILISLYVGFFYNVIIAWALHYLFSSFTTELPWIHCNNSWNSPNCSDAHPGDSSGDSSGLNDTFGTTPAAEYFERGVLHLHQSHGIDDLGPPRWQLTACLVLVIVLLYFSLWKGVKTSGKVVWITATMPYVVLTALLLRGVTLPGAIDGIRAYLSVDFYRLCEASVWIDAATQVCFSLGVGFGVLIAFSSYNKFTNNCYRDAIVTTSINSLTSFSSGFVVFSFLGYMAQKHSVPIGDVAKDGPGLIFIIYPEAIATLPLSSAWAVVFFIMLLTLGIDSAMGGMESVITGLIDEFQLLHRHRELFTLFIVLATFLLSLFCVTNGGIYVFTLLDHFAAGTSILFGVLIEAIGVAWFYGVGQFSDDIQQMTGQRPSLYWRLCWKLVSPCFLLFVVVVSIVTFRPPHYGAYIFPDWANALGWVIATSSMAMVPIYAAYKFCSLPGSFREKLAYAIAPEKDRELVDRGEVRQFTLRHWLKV

5-HT receptors = settings: cited from earlier work
platelets = test: PF4 addition to assay conditions (platelet activation); type: cell-based; settings: 30 μg/ml; healthy donor and HIT samples; absence of heparin addition
Excerpt: PF4 addition to assay conditions. Platelet factor 4 (PF4) is a 31.2 kDa protein synthesized primarily by megakaryocytes and stored in platelet alpha granules. Positively charged PF4 forms ultra large immune complexes with negatively charged heparin in patients who develop pathological heparin induced thrombocytopenia (HIT).

Molecule: Cl.NCCc1cc(=O)oc2cc(O)c(Cl)cc12 [FFN102]
- MFI of supernatant, FFN-loaded platelets incubated with buffer [1]: 7247+352
- MFI of supernatant, FFN-loaded platelets incubated with ionophore [1]: 9845+352

Molecule: SFLLRN
- MFI of platelet releasate, FFN246+agonist or antibody, no heparin ([2]; A23187 10 μM): 25426
- MFI of platelet releasate, FFN246+agonist (healthy donor platelets [3]): 26703

Molecule: NCCc1ccc2[nH]c3cccc(F)c3c(=O)c2c1 [FFN246]
- MFI of supernatant, FFN-loaded platelets incubated with buffer [1]: 15,692+1203
- MFI of supernatant, FFN-loaded platelets incubated with ionophore [1]: 32901+448
- MFI of platelet releasate, FFN246+A23187 (healthy donor platelets [4]; 10 uM FFN246): 25,790
- MFI of platelet releasate, FFN246+A23187 (healthy donor platelets [4]; 25 μM FFN246): 36,124
- MFI of platelet releasate, FFN246+A23187 (healthy donor platelets [4]; 50 μM FFN246): 30,470
- MFI of platelet releasate, FFN246+A23187 (healthy donor platelets [4]; 100 μM FFN246): 35,405
- MFI of platelet releasate, FFN246+buffer ([2]; 50 μM FFN246, no agonist): 11688
- uptake by norepinephrine transporters (NET), lower than SERT [5]: 23%
- MFI of platelet releasate, FFN246+buffer (healthy donor platelets [3]; 50 μM FFN246, no agonist): 12199
- uptake by dopamine transporters (DAT), lower than SERT [6]: 31%
- activity at 5-HT receptors (5-HT receptors): no activity at 5-HT receptors
- binding to neurotransmitter receptors (5-HT receptors): does not bind to neurotransmitter receptors

Molecule: CNc1ccc2oc(C[C@H]3O[C@@]4(CC[C@H]3C)O[C@H]([C@H](C)C(=O)c3ccc[nH]3)[C@H](C)C[C@H]4C)nc2c1C(=O)O [A23187]
- MFI of platelet releasate, buffer+A23187 (no FFN246) (healthy donor platelets [4]; background paired with 10 uM FFN246 condition): 10,100
- MFI of platelet releasate, buffer+A23187 (no FFN246) (healthy donor platelets [4]; background paired with 25 μM FFN246 condition): 4,707
- MFI of platelet releasate, buffer+A23187 (no FFN246) (healthy donor platelets [4]; background paired with 50 μM FFN246 condition): 3,461
- MFI of platelet releasate, buffer+A23187 (no FFN246) (healthy donor platelets [4]; background paired with 100 μM FFN246 condition): 1,676
- MFI of platelet releasate, buffer+calcium ionophore (no FFN246) ([2]; A23187 10 μM, no FFN246): 11399
- MFI of platelet releasate, FFN246+agonist or antibody, no heparin ([2]; A23187 10 μM): 32674
- MFI of platelet releasate, buffer+calcium ionophore (no FFN246) (healthy donor platelets [3]; buffer only platelets + A23187 10 μM): 12526
- MFI of platelet releasate, FFN246+agonist (healthy donor platelets [3]): 31924

Molecule: collagen
- MFI of platelet releasate, FFN246+agonist or antibody, no heparin ([2]; A23187 10 μM): 24388
- MFI of platelet releasate, FFN246+agonist (healthy donor platelets [3]): 24369

Molecule: ristocetin
- MFI of platelet releasate, FFN246+agonist (healthy donor platelets [3]): 12247

Molecule: Nc1ncnc2c1ncn2[C@@H]1O[C@H](COP(=O)(O)OP(=O)(O)O)[C@@H](O)[C@H]1O [ADP, adenosine diphosphate]
- MFI of platelet releasate, FFN246+agonist (healthy donor platelets [3]): 14013

B1: PF4: 31.2 kDa protein synthesized primarily by megakaryocytes and stored in platelet alpha granules (protein, UniProt P02776 32-101, looked up)
Platelet factor 4: EAEEDGDLQCLCVKTTSQVRPRHITSLEVIKAGPHCPTAQLIATLKNGRKICLDLQAPLYKKIIKKLLES
- platelet activation by exogenous PF4 added to plasma conditions (platelets): led to platelet activation
